pEC50, pIC50: −log10 of the molar value. Peptide text beside a SMILES is read from it.
Legend:
[1] = target: T1, human calcitonin (a) receptor, BHK570 cells (Homo sapiens, UniProt P30988); assay: Assay (II)b functional CRE-luciferase assay without albumin, human calcitonin receptor; format: cell-based; conditions: Tested without HSA; read-out: hCTR funct. EC50
T1 construct: host or cells: BHK570
T1 sequence (P30988 25-474): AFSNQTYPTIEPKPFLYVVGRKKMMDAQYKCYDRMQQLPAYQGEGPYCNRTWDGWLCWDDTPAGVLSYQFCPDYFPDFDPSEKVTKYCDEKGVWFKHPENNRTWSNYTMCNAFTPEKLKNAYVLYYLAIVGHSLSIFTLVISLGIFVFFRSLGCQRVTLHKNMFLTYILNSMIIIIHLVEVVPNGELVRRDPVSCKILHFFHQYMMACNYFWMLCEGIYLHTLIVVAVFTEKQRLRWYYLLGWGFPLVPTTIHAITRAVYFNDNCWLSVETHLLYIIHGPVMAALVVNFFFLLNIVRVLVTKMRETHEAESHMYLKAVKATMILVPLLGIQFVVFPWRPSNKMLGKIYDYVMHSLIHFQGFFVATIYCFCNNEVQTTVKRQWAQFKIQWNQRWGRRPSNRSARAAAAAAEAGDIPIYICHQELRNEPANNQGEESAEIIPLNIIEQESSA
In short: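 BHK570 cells stably expressing human calcitonin receptor with CRE-luciferase reporter, plus RAMP-3 for the amylin 3(a) line. Cells stimulated 3 hours at 37 °C in albumin-free assay medium (0.1% ovalbumin, 10 mM Hepes pH 7.4); cAMP-driven luciferase read by luminescence.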

[2] = target: T2, human amylin receptor (human calcitonin receptor + human RAMP3), BHK tk'ts 13 cells (Homo sapiens, UniProt O60896+P30988); assay: Assay (Va) binding to the human amylin receptor (whole cell); conditions: read-out: hAmylin-R binding IC50
T2 construct: expressed in transfected cells; host or cells: BHK tk'ts 13
T2 sequence (O60896 24-148, one chain of several): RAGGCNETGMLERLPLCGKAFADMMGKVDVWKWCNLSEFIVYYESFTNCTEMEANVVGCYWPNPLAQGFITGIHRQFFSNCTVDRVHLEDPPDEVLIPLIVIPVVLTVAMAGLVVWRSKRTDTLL
Experimental: The day before the assay the cells were Seeded into Poly-D-Lysin coated 384W Opaque White, BD BioCoat plates (10000 cells/well) and Incubated overnight at 37° C., 5% CO2, 95% humidity.

[3] = target: T3, human calcitonin receptor, BHK tk'ts 13 cells (Homo sapiens, UniProt P30988); assay: Assay (VIIa) binding to the human calcitonin receptor (whole cell); conditions: read-out: hCT-R binding IC50
T3 construct: expressed in transfected cells; host or cells: BHK tk'ts 13
T3 sequence (P30988 25-474): T1 sequence (P30988 25-474)
Experimental: Assay (VIIa)—Determination of Binding to the Human Calcitonin Receptor (Whole Cell Binding)
The binding assay was performed using a BHK tk'ts 13 cell line was stably transfected with the human calcitonin receptor, and a CRE-responsive luciferase reporter gene.
The day before the assay the cells were Seeded into Poly-D-Lysin coated 384W Opaque White, BD BioCoat plates (10000 cells/well) and Incubated overnight at 37° C., 5% CO2, 95% humidity. Then, the cells were washed in HBSS (4° C.), and incubated overnight at 4° C. in a binding buffer containing test compounds, 50 pM [125I]-human calcitonin, media w/o phenol red, 500 ml 0.1% ovalbumin (5 ml 10% ovalbumin) 10 mM Hepes (5 ml 1M) 1× Glutamin (5 ml 100×) 1% P/S (5 ml 100%) Complete (1 tablet/50 ml) 0.1% Pluronic F68®. The morning after, the plates were washed three times in HBSS (4° C.), and lyzed in Lysis buffer (0.1 M NaOH), 1% SDS. Scintillation cocktail (MicroScint40®) was added and the plates were shaken at 500 rpm for a short period. The plate was incubated at room temperature in the dark for 1 hour and Read on a TopCounter™ (Packard). The IC50 was calculated using (one site binding competition analysis) GraphPad Prism5 as a measure of receptor affinity. Assay (VIII)—Determination of Binding to the Rat Calcitonin Receptor

[4] = target: T4, human amylin 3(a) receptor (human calcitonin receptor + RAMP-3), BHK570 cells (Homo sapiens, UniProt O60896+P30988); assay: Assay (II)b functional CRE-luciferase assay without albumin, human amylin receptor; format: cell-based; conditions: Tested without HSA; read-out: hAmylin-R funct. EC50
T4 construct: host or cells: BHK570
T4 sequence (O60896 24-148, one chain of several): as above
In short: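 Agonism measured as CRE-driven luciferase luminescence after 3 h sample exposure at 37 °C, without albumin (0.1% ovalbumin, Hepes pH 7.4 medium). Reporter cells: BHK570 carrying human calcitonin receptor, co-transfected with RAMP-3 to form the amylin 3(a) receptor.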

[5] = target: T5, human calcitonin receptor (Homo sapiens, UniProt P30988); assay: Assay (VII) binding to the human calcitonin receptor (membrane, SPA); conditions: membranes, 125I-Calcitonin; read-out: hCT-R binding IC50
T5 construct: expressed in transfected cells; host or cells: BHK tk'ts 13
T5 sequence (P30988 25-474): T1 sequence (P30988 25-474)
Experimental: Assay (VII)—Determination of Binding to the Human Calcitonin Receptor (Membrane)
The binding assay was performed using scintillation proximity assay (SPA) beads (RPNQ0001) from PerkinElmer® and cell membranes prepared from a BHK tk'ts 13 cell line was stably transfected with the human calcitonin receptor and a CRE-responsive luciferase reporter gene. Membranes were prepared in the following way; the cells were rinsed with PBS and incubated with Versene for approximately 5 min before harvesting. The cells were flushed with PBS and the cell-suspension was centrifuged for 5 min at 1000 rpm. Cells were homogenized in a buffer containing 20 mM Na-HEPES and 10 mM EDTA (pH 7.4) and centrifuged at 20.000 rpm for 15 min. The resulting pellet was resuspended, homogenized and centrifuged (20.000 rpm, 15 min) in a buffer containing 20 mM Na-HEPES and 0.1 mM EDTA (pH 7.4, buffer 2). The resulting pellet was resuspended in buffer 2 and protein concentration was tested (BCA protein Assay, Pierce). The homogenate was kept cold during the whole procedure. The membranes were kept at −80° C. until use. Assay was performed in a 384 well Optiplate (PerkinElmer®) in a total volume of 40 ul. Membranes were mixed with SPA beads. Final concentration of membranes 35 ng/μL final and Final concentration of SPA beads was 0.05 mg/well. Test-compounds were dissolved in DMSO and further diluted in assay buffer (50 mM Hepes, pH 7.4, 1 mM CaCl2, 5 mM MgCl2, 0.1% OA and 0.02% Tween20). Radioligand ^125I-Calcitonin was dissolved in assay buffer and added to the Optiplate at a final concentration of 75 pM/well (approx. 30.000 cpm/10 ul). The final mixture was incubated for 120 min with shaking at 400 rpm at 25° C. prior to centrifugation (1500 rpm, 10 min). Samples were analyzed on TopCounter™ (Packard). The IC50 was calculated using (one site binding competition analysis) GraphPad Prism5 as a measure of receptor affinity.

[6] = Assay (IV) determination of solubility; format: physicochemical
Experimental: Assay (IV)—Determination of Solubility
The mimylin peptide was dissolved in water at ˜500 nmol/ml and mixed 1:1 with a series of buffers (100 mM glycylglycine pH 3.0, 100 mM glycylglycine pH 4.0, 100 mM glycylglycine pH 5.0, 100 mM bistrispropane pH 6.0, 100 mM bistrispropane pH 6.5, 100 mM bistrispropane pH 7.0, 100 mM bistrispropane pH 7.5, 100 mM bistrispropane pH 8.0).

[7] = target: T4, human amylin 3(a) receptor (human calcitonin receptor + RAMP-3), BHK570 cells; assay: Assay (II)a functional CRE-luciferase assay with albumin, human amylin receptor; format: cell-based; conditions: Tested with HSA; read-out: hAmylin-R funct. EC50
Source text: Assay(II)a—Human Calcitonin and Amylin Receptor Assay
1. Luciferase Assay Outline
Activation of calcitonin and amylin (co-expression of calcitonin receptor and receptor activity modifying proteins (RAMP)) receptors lead to increased intracellular concentrations of cAMP. Consequently, transcription is activated by promoters containing multiple copies of the cAMP response element (CRE). It is thus possible to measure amylin activity by the use of a CRE luciferase reporter gene introduced into BHK cells also expressing calcitonin or amylin receptors.
2. Construction of Calcitonin (a)—and Amylin 3(a)—Receptor/CRE-Luc Cell Line.
A BHK570 cell line was stably transfected with the human calcitonin receptor and a CRE-responsive luciferase reporter gene. The cell line was further transfected with RAMP-3, using standard methods. This turns the calcitonin receptor into an amylin 3(a) receptor. Methotrexate, Neomycin, and Hygromycin are selection markers for luciferase, the calcitonin receptor, and RAMP-3, respectively.
To perform activity assays, BHK calcitonin (a) receptor- or amylin 3(a)-receptor/CRE-luc cells were seeded in white 96 well culture plates at a density of about 20.000 cells/well. […] After incubation overnight at 37° C. and 5% CO2, the growth medium was replaced by 50 μl/well assay medium (DMEM (without phenol red), Glutamax™, 10% FBS, and 10 mM Hepes, pH 7.4). Further, 50 μl/well of standard or sample in assay buffer were added.
After 3 hours incubation at 37° C. and 5% CO2, the assay medium with standard or sample were removed and replaced by 100 μl/well PBS. Further, 100 μl/well LucLite™ was added. The plates were sealed and incubated at room temperature for 30 minutes. Finally, luminescence was tested on a TopCounter (Packard) in SPC (single photon counting) mode.

pEC50 [1]	pIC50 [2]	pIC50 [3]	pEC50 [4]	pIC50 [5]	solubility at 18 h ([6]; bistrispropane buffer, pH 6.5)	solubility at 18 h ([6]; bistrispropane buffer, pH 7.5)	solubility at 18 h ([6]; bistrispropane buffer, pH 6.0)	solubility at 18 h ([6]; bistrispropane buffer, pH 7.0)	solubility at 18 h ([6]; bistrispropane buffer, pH 8.0)	solubility at 18 h ([6]; glycylglycine buffer, pH 3.0)	solubility at 18 h ([6]; glycylglycine buffer, pH 4.0)	solubility at 18 h ([6]; glycylglycine buffer, pH 5.0)	pEC50 [7]	Compound
11.70	9.33	9.32												CC(C)C[C@H](NC(=O)[C@H](C)NC(=O)[C@H](C)NC(=O)[C@@H](NC(=O)[C@H](CO)NC(=O)[C@H](CC(C)C)NC(=O)[C@H](CCC(=O)O)NC(=O)[C@H](CO)NC(=O)[C@H](C)NC(=O)[C@@H](N)CCC(=O)O)[C@@H](C)O)C(=O)NCC(=O)N[C@@H](CCCNC(=N)N)C(=O)N[C@@H](CC(C)C)C(=O)N[C@@H](CO)C(=O)N[C@@H](C)C(=O)N[C@@H](CCC(=O)O)C(=O)N[C@@H](CC(C)C)C(=O)N[C@@H](Cc1c[nH]cn1)C(=O)N[C@@H](CCC(=O)O)C(=O)N[C@@H](CC(C)C)C(=O)N[C@@H](C)C(=O)N[C@H](C(=O)N[C@@H](CC(C)C)C(=O)N1CCC[C@H]1C(=O)N[C@@H](CCCNC(=N)N)C(=O)N[C@H](C(=O)N[C@@H](CCC(=O)O)C(=O)N[C@H](C(=O)NCC(=O)N[C@@H](CO)C(=O)NCC(=O)N[C@@H](CO)C(=O)N1CCC[C@H]1C(N)=O)[C@@H](C)O)[C@@H](C)O)[C@@H](C)O [22bb, H—EASELSTAALGRLSAELHELATLPRTETGSGSP—NH2] (H-EASELSTAALGRLSAELHELATLPRTETGSGSP-NH2)
	9.29	9.37	11.52											CC(C)C[C@H](NC(=O)[C@H](C)NC(=O)[C@H](C)NC(=O)[C@@H](NC(=O)[C@H](CO)NC(=O)[C@H](CC(C)C)NC(=O)[C@H](CCC(=O)O)NC(=O)[C@H](CO)NC(=O)[C@H](C)NC(=O)[C@@H](N)CCC(=O)O)[C@@H](C)O)C(=O)NCC(=O)N[C@@H](CCCNC(=N)N)C(=O)N[C@@H](CC(C)C)C(=O)N[C@@H](CO)C(=O)N[C@@H](C)C(=O)N[C@@H](CCC(=O)O)C(=O)N[C@@H](CC(C)C)C(=O)N[C@@H](Cc1c[nH]cn1)C(=O)N[C@@H](CCC(=O)O)C(=O)N[C@@H](CC(C)C)C(=O)N[C@@H](C)C(=O)N[C@H](C(=O)N[C@@H](CC(C)C)C(=O)N1CCC[C@H]1C(=O)N[C@@H](CCCNC(=N)N)C(=O)N[C@H](C(=O)N[C@@H](CCC(=O)O)C(=O)N[C@H](C(=O)NCC(=O)N1CCC[C@H]1C(=O)N[C@@H](CCC(=O)O)C(=O)N[C@@H](CO)C(=O)N1CCC[C@H]1C(N)=O)[C@@H](C)O)[C@@H](C)O)[C@@H](C)O [Ex. #1, mimylin] (H-EASELSTAALGRLSAELHELATLPRTETGPESP-NH2)
10.52			10.28	10.15	≥ 200 µM	≥ 200 µM	≥ 200 µM	≥ 200 µM	≥ 200 µM	≥ 200 µM	≥ 200 µM	≥ 200 µM	9.79	CC(=O)N[C@@H](C)C(=O)N[C@@H](CO)C(=O)N[C@@H](CCC(=O)O)C(=O)N[C@@H](CC(C)C)C(=O)N[C@@H](CO)C(=O)N[C@H](C(=O)N[C@@H](C)C(=O)N[C@@H](C)C(=O)N[C@@H](CC(C)C)C(=O)NCC(=O)N[C@@H](CCCNC(=N)N)C(=O)N[C@@H](CC(C)C)C(=O)N[C@@H](CO)C(=O)N[C@@H](C)C(=O)N[C@@H](CCC(=O)O)C(=O)N[C@@H](CC(C)C)C(=O)N[C@@H](Cc1c[nH]cn1)C(=O)N[C@@H](CCC(=O)O)C(=O)N[C@@H](CC(C)C)C(=O)N[C@@H](C)C(=O)N[C@H](C(=O)N[C@@H](CC(C)C)C(=O)N1CCC[C@H]1C(=O)N[C@@H](CCCNC(=N)N)C(=O)N[C@H](C(=O)N[C@@H](CCCCNC(=O)CC[C@H](NC(=O)CCCCCCCCCCCCCCCCCCC(=O)O)C(=O)O)C(=O)N[C@H](C(=O)NCC(=O)N[C@@H](CO)C(=O)NCC(=O)N[C@@H](CO)C(=O)N1CCC[C@H]1C(N)=O)[C@@H](C)O)[C@@H](C)O)[C@@H](C)O)[C@@H](C)O [compound 71, [N-terminal(acetyl), des1, 27K(C20 diacid-gGlu), 30S, 31G]mimylin]

From patent US9593149B2, “Amylin and calcitonin receptor agonist” (Novo Nordisk A/S, priority 2014, dated 2017)
